Like-named read-outs stand apart in the source and are kept apart here.
What was measured:
[1] = system: T. cruzi amastigotes (Tulahuen C2C4-LacZ); assay: Trypanocidal activity against intracellular amastigotes (CPRG, beta-galactosidase); format: cell-based, Trypanosoma cruzi; conditions: for Selective Index: LLC-MK2 IC50 vs T. cruzi amastigote IC50; for IC50: Trypanosoma cruzi, TULAHUEN, 120 h, in LLC-MK2 host cells
Procedure: The antiparasitic activity assays used the Tulahuen C2C4-LacZ strain of the Trypanosoma cruzi parasite, being evaluated in the amastigote forms. […] Trypomastigote forms were collected from the culture supernatant between the 5th and 10th day after infection and separated from non-adherent cells by differential centrifugation. Epimastigote evolutionary form parasites were cultivated in LIT medium (Liver Infusion Tryptose), supplemented with hemin (25 mg/L) + 10% FBS, and incubated at 28 °C, performing successive passages every 6–7 days.
Non-internalized parasites were removed by three successive washes with PBS, followed by treatment with increasing concentrations of the hybrids (0.64–100 µM) in triplicates, pre-diluted in DMEM + 2% FBS. Untreated vehicle (0.2% v/v DMSO) and blank (no added parasites) controls were included in the experiment. Increasing concentrations of Benznidazole were used as the positive control. After incubation for 5 days (120 h), 30 µL of 0.5 mM chlorophenol red substrate β-galactopyranoside (CPRG) in PBS was added with 0.9% v/v of Igepal CA-630.

[2] = Cytotoxicity (MTT) on LLC-MK2 host cells; format: cell-based; conditions: rhesus monkey
Excerpt: Mammalian cells were used to evaluate the cytotoxicity of the tested compounds. […] Cells were dissociated from the monolayer by treatment with a solution containing 0.25% w/v trypsin and 0.04% EDTA.

[3] = system: H460 cells; assay: Antiproliferative activity (MTT) against H460 tumor cell line; format: cell-based, human; conditions: for IC50: read-out: H460 IC50; for Selective Index SI H460: PBMC LD50 vs H460 IC50; for Fold increase in potency compared with analog 7, H460: IC50 ratio vs 7
Procedure: (§1) Cells were treated with increasing concentrations of the hybrids in triplicates, pre-diluted in DMEM + 2% FBS, and incubated for 120 h. The toxic effect of the molecules was also evaluated on human lung cancer cell lines (A549 and H460), as well as on PBMC. […] In all experiments, untreated controls, vehicle (0.2% v/v DMSO), and blanks (no added cells) were included. […] Then, 20 µL of 3.0 mM MTT saline was added and incubated for another 1.5 h. The supernatant was removed, and the MTT formazan crystals were dissolved by adding 120 µL/well of DMSO. After incubation for 1.5 h to dissolve the MTT crystals away from light and at 37 °C, the absorbance was measured at λ = 570 nm using a plate reader.

[4] = system: A549 cells; assay: Antiproliferative activity (MTT) against A549 tumor cell line; format: cell-based, human; conditions: for IC50: read-out: A549 IC50; for Selective Index SI A549: PBMC LD50 vs A549 IC50
Procedure: as §1

[5] = system: peripheral blood mononuclear cells (PBMC); conditions: human, 72 h
Procedure: as §1

[6] = Stability in PBS by HPLC-DAD; format: physicochemical; conditions: PBS pH 7.4, 37 °C; for Chemical stability in PBS: 24 h incubation
Procedure: The analytical conditions were as follows: Column Restek, Allure Organic Acid C18, 150 mm × 4.6 mm × 5 µm (Bellefonte, PA, USA); mobile phase, 40% water with 0.1% formic acid, 60% acetonitrile with 0.1% formic acid, 1.0 mL/min, isocratic elution; injection volume, 5 µL; detectors, PDA (200–800 nm). […] After incubation, 100 µL of reaction mixtures were added to 900 µL of HPLC mobile phase and injected.

[7] = system: T. cruzi epimastigotes (Y strain); design: method as in PMID 27658305; conditions: read-out: IC50 against epimastigotes (Y strain); cited from earlier work
[8] = system: T. cruzi (Y strain) amastigotes; design: method as in PMID 27658305; conditions: cited from earlier work
[9] = system: A549 cells; assay: Cell cycle analysis by PI flow cytometry; format: cell-based, human; conditions: A549, 72 h treatment at IC50; for Cells in G2-M phase: control approximately 20%
Procedure: The cell cycle phase was determined using a PI solution, according to a method described elsewhere. […] Cell cycle determination was performed on a FACScalibur flow cytometer (BD Biosciences, San Diego, CA, USA). Post-analysis of the cell cycle assay was performed using Summit software (version 4.3, Dako Colorado, Fort Collins, CO, USA).

[10] = system: peripheral blood mononuclear cells (PBMC); assay: Cytotoxicity (MTT) on peripheral blood mononuclear cells
Procedure: as §1

[11] = system: A549 cells; assay: Cell death analysis by Annexin V/PI flow cytometry; format: cell-based, human; conditions: A549, 48 h at IC50; control 2.38%
Procedure: Cell death analysis was performed by using an Annexin V/PI double staining kit (PharMingen, San Diego, CA, USA) as previously described. For the assay, the cells were plated at a density of 1 × 10^6 cells/well in six-well plates, 2 mL/well. […] After incubating for 15 min at room temperature in the dark, 400 µL of binding buffer was added. The two-color flow cytometry analysis was performed on a FACSCalibur device (Becton Dickinson, Franklin Lakes, NJ, USA). Post-analysis was performed in Summit software (version 4.3, Dako Colorado, Fort Collins, CO, USA).

[12] = Homo sapiens, NCI-H460, 72 h, MTT

SMILES | Selective Index [1] | IC50 [1] | IC50 at 120 h [2] | PBMC LD50 [5] | IC50 [3, 12] | IC50 ([4]; Homo sapiens, A549, 72 h, MTT) | Selective Index SI A549 [4] | Selective Index SI H460 [3] | further results
O=C(Cn1ccnc1[N+](=O)[O-])NCc1ccccc1 [Benznidazole, reference compound] | > 133 | 1.5 ± 0.33 µM | > 200 µM |  |  |  |  |  | 
N.N.[Cl][Pt][Cl] [Cisplatin, reference compound] |  |  |  |  |  |  |  |  | IC50 ([3]; 72 h, MTT): 2.96 ± 0.44 µM; IC50 ([4]; 72 h, MTT): 6.05 ± 0.58 µM
COc1cc(/C=C/C(=O)CC(=O)/C=C/c2ccc(O)c(OC)c2)ccc1O [Compound 1, (1E,6E)-1,7-Bis(4-hydroxy-3-methoxyphenyl)hepta-1,6-dien-3,5-dione, reference compound] |  | 17.8 ± 6.88 µM | 25.7 ± 6.05 µM | 146.5 ± 12.08 µM |  |  |  |  | Fraction decomposed in PBS [6]: approximately 70%; IC50 [7]: 10.1 µM; IC50 ([3]; Homo sapiens, NCI-H460, 72 h): 37.9 ± 8.81 µM; IC50 ([4]; Homo sapiens, A549, 72 h): 56.5 ± 3.75 µM; Amastigote release from infected mouse macrophages [8]: inhibited amastigote release; Cells in G2-M phase [9]: 80%
O=C(/C=C/c1ccc(O)cc1)CC(=O)/C=C/c1ccc(O)cc1 [Compound 3, (1E,6E)-1,7-Bis(4-hydroxyphenyl)hepta-1,6-diene-3,5-dione, reference compound] | 1.11 | 17.6 ± 0.26 µM | 19.7 ± 0.87 µM | 134.1 ± 13.30 µM | 27.1 ± 4.35 µM | 46.5 ± 3.45 µM | 2.88 |  | 
COc1cc(/C=C/C(=O)/C=C/c2ccc(O)c(OC)c2)ccc1O [Compound 4, (1E,4E)-1,5-Bis(4-hydroxy-3-methoxyphenyl)penta-1,4-dien-3-one] |  | 3.92 ± 0.33 µM | < 6.4 µM |  |  |  |  | > 19.60 | Chemical stability in PBS [6]: remained untouched; PBMC LD50 ([10]; 72 h, MTT): >200 µM; Toxic effects against peripheral blood mononuclear cells ([10]; higher concentration tested): did not present toxic effects; IC50 ([3]; Homo sapiens, NCI-H460, 72 h): 10.2 ± 3.76 µM; IC50 ([4]; Homo sapiens, A549, 72 h): 18.1 ± 4.72 µM
COc1cc(/C=C/C(=O)c2ccc(O)c(OC)c2)ccc1O [Compound 5, (E)-1,3-Bis(4-hydroxy-3-methoxyphenyl)prop-2-en-1-one] | 0.55 | 15.6 ± 4.08 µM |  | 119.1 ± 16.35 µM | 1.74 ± 0.28 µM | 58 ± 6.75 µM | 2.05 | 68.44 | IC50 at 120 h ([2]; 120 h, MTT, read-out: LLC-MK2 (Host Cells) 120 h IC50): 8.72 ± 2.42 µM
COc1cc(/C=C2\CC/C(=C\c3ccc(O)c(OC)c3)C2=O)ccc1O [Compound 6, 2,5-Bis((E)-4-hydroxy-3-methoxybenzylidene)cyclopentan-1-one] |  | 8.35 ± 2.35 µM | < 6.4 µM | 141.1 ± 18.53 µM | 36.1 ± 7.14 µM | 71.3 ± 1.53 µM | 1.97 | 3.90 | 
COc1cc(/C=C2\CCC/C(=C\c3ccc(O)c(OC)c3)C2=O)ccc1O [Compound 7, 2,6-Bis((E)-4-hydroxy-3-methoxybenzylidene)cyclohexan-1-one] |  | 4.91 ± 0.4 µM | < 6.4 µM | >200 µM | 42.6 ± 3.94 µM | 76.2 ± 9.49 µM |  |  | 
COc1cc(/C=C2\COC/C(=C\c3ccc(O)c(OC)c3)C2=O)ccc1O [Compound 8, (3E,5E)-3,5-Bis(4-hydroxy-3-methoxybenzylidene)tetrahydro-4H-pyran-4-one] | 1.60 | 12.8 ± 5.17 µM | 20.6 ± 4.65 µM | 131.8 ± 14.52 µM | 1.46 ± 0.28 µM | 8.1 ± 1.27 µM | 16.27 |  | Chemical stability in PBS [6]: remained untouched; Fold increase in potency compared with analog 7, H460 [3]: ~30 fold; Fold increase in potency compared with parent derivative 7, A549 ([4]; IC50 ratio vs 7): ~10 fold
COc1cc(/C=C2\CN(C)C/C(=C\c3ccc(O)c(OC)c3)C2=O)ccc1O [Compound 9, (3E,5E)-3,5-Bis(4-hydroxy-3-methoxybenzylidene)-1-methylpiperidin-4-one] | 2.95 | 9.6 ± 1.61 µM | 28.4 ± 3.8 µM | 73.25 ± 5.87 µM | 9.89 ± 3.03 µM | 61.1 ± 6.2 µM | 1.19 | 7.40 | Fold increase in potency compared with analog 7, H460 [3]: 4.3 fold
COc1cc(/C=C2\CSC/C(=C\c3ccc(O)c(OC)c3)C2=O)ccc1O [Compound 10, (3Z,5Z)-3,5-Bis(4-hydroxy-3-methoxybenzylidene)dihydro-2H-thiopyran-4(3H)-one] | 2.20 | 5.87 ± 2.89 µM | 13 ± 2.36 µM | 186.4 ± 35.15 µM | 12.8 ± 3.94 µM | 37 ± 8.28 µM | 5.04 | 14.56 | 
COc1cc(/C=C2\C[S+]([O-])C/C(=C\c3ccc(O)c(OC)c3)C2=O)ccc1O (stereo not shown) [Compound 11, (3Z,5Z)-3,5-Bis(4-hydroxy-3-methoxybenzylidene)dihydro-2H-thiopyran-4(3H)-one 1-oxide] | 1.70 | 16.7 ± 4.67 µM | 28.5 ± 5.17 µM | >200 µM | 1.02 ± 0.29 µM | 7.74 ± 1.65 µM |  | > 196.07 | 
COc1cc(/C=C2\CS(=O)(=O)C/C(=C\c3ccc(O)c(OC)c3)C2=O)ccc1O [Compound 12, (3Z,5Z)-3,5-Bis(4-hydroxy-3-methoxybenzylidene)dihydro-2H-thiopyran-4(3H)-one 1,1-dioxide] | 1.56 | 7.33 ± 0.43 µM | 11.5 ± 3.71 µM | 173.0 ± 37.4 µM | 0.27 ± 0.2 µM | 5.89 ± 2.81 µM | 29.37 | 640.74 | Double-positive cells for annexin and PI (late apoptosis) [11]: 14.98%; Cells in sub-G0 phase [9]: 30%; Cells in G2-M phase [9]: 60%

From article PMC12030033, “Design and Synthesis of Bis-Chalcones as Curcumin Simplified Analogs and Assessment of Their Antiproliferative Activities Against Human Lung Cancer Cells and Trypanosoma cruzi Amastigotes” (Pharmaceuticals, 2025)
